Measured values: patent US6864285B1, “Covalent derivatives of alkanolamides of monocarboxylic and dicarboxylic acids functionally active on the CB2 cannabinoid receptor” (Innovet Italia S.r.l., priority 1999, dated 2005)
Converted amounts (≈) assume the structure as drawn. Read-outs that look alike come from different tables or passages of the source.

Legend:
[1] = physchem
[2] = Solubility in water and in organic solvents (chemical and physical characteristics); settings: for solubility in water: in words
[3] = Lipid/water partition parameter RM from thin-film chromatography on silica gel; assay type: physicochemical; settings: for ΔRM solvent 1 / RM solvent 1 / RF solvent 1: Solvent 1: 100% ethyl acetate; for ΔRM solvent 1 / ΔRM solvent 2: RM of derivative minus RM of corresponding alkanolamide; for RM solvent 1 / RM solvent 2: RM=log (1/Rf−1); for RF solvent 1 / RF solvent 2: silica gel; for ΔRM solvent 2 / RM solvent 2 / RF solvent 2: Solvent 2: heptane:isopropanol:ethyl acetate:H2O 40:20:50:2
Protocol: The chemical and physical characteristics of the derivatives according to the invention were evaluated by quantitative measurement of the lipid/water partition parameter.
A useful parameter for evaluating the properties of a compound in relation to its possible absorption is in fact constituted by the coefficient of partition between the lipid phase and the aqueous phase, which is considered to be an expression of its lipophilicity and its degree of hydrophilicity. […] For the purpose of evaluating the characteristics of the derivatives of the invention, the partition parameter RM between the lipid and the aqueous phase, extrapolated from thin-film partition chromatography, was calculated; this parameter is commonly used to evaluate the lipophilic characteristics of compounds (Tomlinson E. J. Chromatogr. 1975, 113, 1) and is commonly used, for example, for local anaesthetics, in which a correlation has been shown between this parameter and biological activity (Bachrata M. et al. J. Chromatogr. 1979, 171, 29-36).
The partition parameter RM between the lipid phase and the aqueous phase was calculated both for the derivatives and for the non-substituted alkanolamides, from the Rf value obtained by thin-film chromatography on silica gel (particles of […], mean porosity 60 Å, thickness 0.25 mm on glass plate) in accordance with the formula: RM=log (1/Rf−1) and the ΔRM was obtained from the difference between the RM coefficients of the derivative and of the corresponding alkanolamide.

[4] = target: T1, CB2 receptor (Rattus norvegicus, UniProt Q9QZN9); assay: Binding of [3H]WIN55,212-2 to membranes of RBL-2H3+ cells; settings: cell membranes, 300 pM ligand, 90' at 30° C.; read-out: Ki CB2 receptor RBL-2H3 + cells Lig. [3H]WIN55, 212-2
T1 construct: endogenous in cells; host or cells: rat RBL-2H3+ leukemic basophilic cells
T1 sequence (Q9QZN9 1-360): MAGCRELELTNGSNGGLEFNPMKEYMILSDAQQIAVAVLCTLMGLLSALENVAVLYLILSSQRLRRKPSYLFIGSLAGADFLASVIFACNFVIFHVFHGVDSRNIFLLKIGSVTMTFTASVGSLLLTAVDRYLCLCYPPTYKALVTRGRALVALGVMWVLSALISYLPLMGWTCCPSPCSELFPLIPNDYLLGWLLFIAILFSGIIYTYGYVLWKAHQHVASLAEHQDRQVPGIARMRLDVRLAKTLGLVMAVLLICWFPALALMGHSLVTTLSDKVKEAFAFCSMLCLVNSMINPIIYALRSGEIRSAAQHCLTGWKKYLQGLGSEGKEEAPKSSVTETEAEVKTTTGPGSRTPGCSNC
Excerpt: (§1) Effect of alkanolamide molecules on the binding of the synthetic ligands of the CB2 and CB1 cannabinoid receptors, respectively.
(§2) Rat RBL-2H3+ leukemic basophilic cells, which selectively express the cannabinoid CB2 receptor, and mouse N18TG2 neuroblastoma cells which selectively express the CB1 cannabinoid receptor were used. The cells were cultivated as described above (Facci L. et al. (1995) Proc. Natl: Acad: Sci. U.S.A. 92:: 3376-3380; Bisogno T. et al. 1997 J. Biol. Chem., 272: 3315-3323). WIN 55,212.2 was used as the selectively agonist synthetic ligand for the CB2 receptor.
HU-210 was used as the selective […] for the CB2 receptor.
(§3) [^3H]SR141716A (55 Ci/mmol) was supplied by Amersham; [^3H]WIN55,212-2 (43 Ci/mmol) was supplied by NEN. The binding tests were performed with membranes of the cells resuspended in 50 mMol Tris pH 7.0 buffer; 2.5 mMol MgCl2, 0.8 mMol EDTA; 0.05% bovine serum albumin (BSA); 0.01% ethanol, in the presence of 100 μM of phenyl-methyl-sulphonyl fluoride (PMSF-Sigma), with the use, of 300 pM of [^3H]SR141716A and of [^3H]WIN55,212-2, respectively, as the ligand.
(§4) The membranes were incubated for 90′ at 30° C. and filtered on glass microfibre filters (GFC-Whatman) and the radioactivity was detected by liquid scintillation. The specific binding was calculated with the use of either 10 μM SR141716A or 10 μM HU-210.
(§5) The Ki values were calculated by Chang-Prusoff's equation and expressed as concentration μM.

[5] = target: T2, CB1 receptor (Mus musculus, UniProt P47746); assay: Binding of [3H]SR141716A to membranes of N18TG2 cells; settings: cell membranes, 300 pM ligand, 90' at 30° C.; read-out: Ki CB1 Receptor N18TG2 cells Lig. [3H]SR141716A
T2 construct: endogenous in cells; host or cells: mouse N18TG2 neuroblastoma cells
Excerpt: as §1, §2
SR141716A was used as the selective antagonist for the CB1 receptor.
as §3, §4, §5

[6] = target: T1, CB2 receptor; assay: Stimulation of cyclic AMP (cAMP) by forskolin in RBL-2H3+ cells; assay type: cell-based; settings: 1 μM forskolin
Protocol: Effect of alkanolamide molecules on the stimulation of cyclic AMP (cAMP) by forskolin.
The tests were performed with the aim of checking whether the binding of the molecules of the present invention to the CB2 receptor has functional significance.
It is in fact known that the function activation of the CB2 receptor brings about, at intracellular level, inhibition of the enzymatic activity of adenylate cyclase and a reduction in the levels of the second-messenger cAMP, resulting in an increase in the conductance of the channels to potassium and an inhibition of proteic phosphorylation (Childers S. R. et al. Biochem. Parmacol. 1996, 52: 819-827).
The dosages of cAMP were performed on RBL-2H3+ cells flowing together in Petri dishes with six wells (Falcon); the cells were stimulated for 10′ at 37° C. with 1 μM of forskolin (Fluka) in 400 μl of medium without serum, containing 20 mM HEPES, 0.1 mg/ml BSA and 0.1 mM 1-methyl-3-isobutyl xanthine (Sigma) and either ethanol or alkanolamide molecules with or without the addition of HU-210. After incubation, the cells were extracted and the levels of cAMP were evaluated with a suitable Amersham kit in accordance with the producer's method. The data were expressed in IC50 μM.

[7] = ethanol, organic solvent or mixture
[8] = ethyl acetate, organic solvent or mixture
[9] = n-octanol, organic solvent or mixture

T2 sequence (P47746 whole entry): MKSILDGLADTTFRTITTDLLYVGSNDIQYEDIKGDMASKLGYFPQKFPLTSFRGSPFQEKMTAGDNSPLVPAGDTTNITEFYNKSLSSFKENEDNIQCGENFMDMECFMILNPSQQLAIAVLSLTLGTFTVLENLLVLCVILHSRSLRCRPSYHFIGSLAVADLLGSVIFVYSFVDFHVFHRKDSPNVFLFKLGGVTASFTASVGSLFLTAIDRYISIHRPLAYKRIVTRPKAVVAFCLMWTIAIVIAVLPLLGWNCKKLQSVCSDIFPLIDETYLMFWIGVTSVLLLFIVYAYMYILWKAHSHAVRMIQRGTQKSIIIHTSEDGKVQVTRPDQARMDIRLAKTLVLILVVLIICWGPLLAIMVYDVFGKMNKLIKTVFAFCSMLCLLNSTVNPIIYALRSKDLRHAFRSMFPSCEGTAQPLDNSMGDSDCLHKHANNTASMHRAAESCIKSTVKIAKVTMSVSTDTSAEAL

CCCCCCCCCCCCCCCC(=O)NCCOC(=O)OCCN1CCCCC1.CS(=O)(=O)O [Example 8, N-[2-[(2-piperidinoethoxy)carbonyl]oxyethyl] hexadecanamide methane sulphonate]
solubility ([1]; DMSO, organic solvent or mixture): 10000 µg/mL
solubility [1, 7]: 10000 µg/mL
solubility ([1]; water): 10000 µg/mL

O=C(CCCCCCCC(=O)NCCOC1CCCCO1)NCCOC1CCCCO1 (centres unmarked) [Example 12, tetrahydropyranyl ether of N,N^1-bis(2-hydroxyethyl) nonandiamide]
solubility in organic solvents: ethanol [2]: 10 mg/ml in ethanol
ΔRM solvent 1 [3]: −0.494
RM solvent 1 [3]: −0.105
RF solvent 1 [3]: 0.56
ΔRM solvent 2 [3]: −0.706
RM solvent 2 [3]: −0.017
RF solvent 2 [3]: 0.51

CCCCCCCCCCCCCCCC(=O)NCCOC1CCCCO1 (centres unmarked) [Example 11, tetrahydropyranyl ether of N-(2-hydroxyethyl) hexadecanamide]
solubility in organic solvents: ethyl acetate ([2]; ethyl acetate): 10 mg/ml in ethyl
solubility in water [2]: slightly soluble
solubility in organic solvents: n-octanol ([2]; n-octanol): 10 mg/ml in ethyl
ΔRM solvent 1 [3]: 0.666
RM solvent 1 [3]: 0.122
RF solvent 1 [3]: 0.43
ΔRM solvent 2 [3]: −0.304
RM solvent 2 [3]: −0.269
RF solvent 2 [3]: 0.65

CCCCCCCCCCCCCCCC(=O)NCCOC(=O)OCCN1CCCCC1 [Example 7, N-[2-[(2-piperidinoethoxy)carbonyl]oxyethyl] hexadecanamide]
solubility in water [2]: slightly soluble
Ki [4]: 0.009 ± 0.0025 µM
ΔRM solvent 1 [3]: 0.49
RM solvent 1 [3]: 1.28
RF solvent 1 [3]: 0.05
solubility [1, 7]: 10000 µg/mL (≈ 22 mM)
Ki [5]: > 15 µM

N,N^1-bis[2-(ethoxycarbonyl)oxyethyl] nonandiamide [Example 4]
solubility in organic solvents: ethanol [2]: 10 mg/ml in ethanol,
solubility in water [2]: slightly soluble
Ki [4]: 0.002 ± 0.0009 µM
IC50 ([6]; 10' at 37° C., read-out: IC50 on forskolin-stimulated cAMP): 1.8 µM
IC50 ([6]; + HU-210 (0.5 μM), read-out: IC50 on forskolin-stimulated cAMP with HU-210): > 20 µM
ΔRM solvent 1 [3]: −0.866
RM solvent 1 [3]: −0.477
RF solvent 1 [3]: 0.75
ΔRM solvent 2 [3]: −0.723
RM solvent 2 [3]: −0.035
RF solvent 2 [3]: 0.52
Ki [5]: > 15 µM

CCCCC1C(=O)N(c2ccccc2)N(c2ccccc2)C1=O [phenyl butazone, reference compound]
Ki [4]: > 15 µM
Ki [5]: > 15 µM

CCCCCCCCCCCCCCCC(=O)NCCOC1CCCO1 (centres unmarked) [Example 9, tetrahydrofuranyl ether of N-(2-hydroxyethyl) hexadecanamide]
solubility in organic solvents: ethanol [2]: 10 mg/ml in ethanol
solubility in water [2]: slightly soluble
ΔRM solvent 1 [3]: −0.630
RM solvent 1 [3]: 0.158
RF solvent 1 [3]: 0.41
ΔRM solvent 2 [3]: −0.247
RM solvent 2 [3]: −0.213
RF solvent 2 [3]: 0.62

CCCCCCCCCCCCCCCC(=O)NCCCOC(=O)OCC [Example 3, N-[3-(ethoxycarbonyl)oxypropyl]hexadecanamide]
solubility in water [2]: slightly soluble
ΔRM solvent 1 [3]: −1.020
RM solvent 1 [3]: −0.194
RF solvent 1 [3]: 0.61
ΔRM solvent 2 [3]: −0.397
RM solvent 2 [3]: −0.327
RF solvent 2 [3]: 0.68
solubility [1, 7]: 10000 µg/mL (≈ 25.9 mM)
solubility [1, 8]: 10000 µg/mL (≈ 25.9 mM)
solubility [1, 9]: 10000 µg/mL (≈ 25.9 mM)

O=C(CCCCCCCC(=O)NCCOC1CCCO1)NCCOC1CCCO1 (centres unmarked) [Example 10, tetrahydrofuranyl ether of N,N^1-bis(2-hydroxyethyl) nonandiamide]
solubility in organic solvents: ethanol [2]: 10 mg/ml in ethanol
ΔRM solvent 1 [3]: −0.424
RM solvent 1 [3]: −0.035
RF solvent 1 [3]: 0.52
ΔRM solvent 2 [3]: −0.584
RM solvent 2 [3]: 0.105
RF solvent 2 [3]: 0.44

CCCCCCCC/C=C\CCCCCCCC(=O)NCCOC(=O)OCC [Example 13, N-[2-(ethoxycarbonyl)oxyethyl] oleoylamide]
solubility in organic solvents: ethanol [2]: 10 mg/ml in ethanol,
solubility in water [2]: slightly soluble
ΔRM solvent 1 [3]: −0.984
RM solvent 1 [3]: −0.231
RF solvent 1 [3]: 0.63
ΔRM solvent 2 [3]: −0.365
RM solvent 2 [3]: −0.347
RF solvent 2 [3]: 0.69

CCCCCCCCCCCCCCCC(=O)NCCOC(=O)OCC [Example 1, N-[2-(ethoxycarbonyl)oxyethyl]hexadecanamide]
solubility in water [2]: slightly soluble
Ki [4]: 0.006 ± 0.0018 µM
ΔRM solvent 1 [3]: −1.001
RM solvent 1 [3]: −0.213
RF solvent 1 [3]: 0.62
ΔRM solvent 2 [3]: −0.403
RM solvent 2 [3]: −0.368
RF solvent 2 [3]: 0.70
solubility [1, 7]: 10000 µg/mL (≈ 26.9 mM)
solubility [1, 8]: 10000 µg/mL (≈ 26.9 mM)
solubility [1, 9]: 10000 µg/mL (≈ 26.9 mM)
Ki [5]: > 15 µM

CCCCCCCCCCCCCCCC(=O)NCCOC(=O)NCc1ccccc1 [Example 5]
solubility in organic solvents: ethyl acetate, hot ([2]; ethyl acetate, hot): 10 mg/ml in ethyl
solubility in water [2]: slightly soluble
solubility in organic solvents: n-octanol, hot ([2]; n-octanol, hot): 10 mg/ml in ethyl
ΔRM solvent 1 [3]: −0.736
RM solvent 1 [3]: 0.052
RF solvent 1 [3]: 0.47
ΔRM solvent 2 [3]: −0.304
RM solvent 2 [3]: −0.269
RF solvent 2 [3]: 0.65

CCCCCCCCCCCCCCCC(=O)NCCOC(=O)OCC(C)C [Example 2, N-[2-(isobutyloxycarbonyl)oxyethyl] hexadecanamide]
solubility in water [2]: slightly soluble
ΔRM solvent 1 [3]: −1.076
RM solvent 1 [3]: −0.288
RF solvent 1 [3]: 0.66
ΔRM solvent 2 [3]: −0.467
RM solvent 2 [3]: −0.432
RF solvent 2 [3]: 0.73
solubility [1, 7]: 10000 µg/mL (≈ 25 mM)
solubility [1, 8]: 1000 µg/mL (≈ 2.5 mM)
solubility [1, 9]: 10000 µg/mL (≈ 25 mM)
